From ChEMBL document CHEMBL5634123, “Design and synthesis of 1H-benzo[d]imidazole selective HDAC6 inhibitors with potential therapy for multiple myeloma” (Eur J Med Chem, 2023)

Tests used:
[1] = molecular target: T1, Protein deacetylase HDAC6 (Homo sapiens, UniProt Q9UBN7); assay: Inhibition of HDAC6 (unknown origin) preincubated for 10 mins followed by substrate addition measured for 1 hr by fluorescence based assay
T1 sequence (Q9UBN7 whole entry): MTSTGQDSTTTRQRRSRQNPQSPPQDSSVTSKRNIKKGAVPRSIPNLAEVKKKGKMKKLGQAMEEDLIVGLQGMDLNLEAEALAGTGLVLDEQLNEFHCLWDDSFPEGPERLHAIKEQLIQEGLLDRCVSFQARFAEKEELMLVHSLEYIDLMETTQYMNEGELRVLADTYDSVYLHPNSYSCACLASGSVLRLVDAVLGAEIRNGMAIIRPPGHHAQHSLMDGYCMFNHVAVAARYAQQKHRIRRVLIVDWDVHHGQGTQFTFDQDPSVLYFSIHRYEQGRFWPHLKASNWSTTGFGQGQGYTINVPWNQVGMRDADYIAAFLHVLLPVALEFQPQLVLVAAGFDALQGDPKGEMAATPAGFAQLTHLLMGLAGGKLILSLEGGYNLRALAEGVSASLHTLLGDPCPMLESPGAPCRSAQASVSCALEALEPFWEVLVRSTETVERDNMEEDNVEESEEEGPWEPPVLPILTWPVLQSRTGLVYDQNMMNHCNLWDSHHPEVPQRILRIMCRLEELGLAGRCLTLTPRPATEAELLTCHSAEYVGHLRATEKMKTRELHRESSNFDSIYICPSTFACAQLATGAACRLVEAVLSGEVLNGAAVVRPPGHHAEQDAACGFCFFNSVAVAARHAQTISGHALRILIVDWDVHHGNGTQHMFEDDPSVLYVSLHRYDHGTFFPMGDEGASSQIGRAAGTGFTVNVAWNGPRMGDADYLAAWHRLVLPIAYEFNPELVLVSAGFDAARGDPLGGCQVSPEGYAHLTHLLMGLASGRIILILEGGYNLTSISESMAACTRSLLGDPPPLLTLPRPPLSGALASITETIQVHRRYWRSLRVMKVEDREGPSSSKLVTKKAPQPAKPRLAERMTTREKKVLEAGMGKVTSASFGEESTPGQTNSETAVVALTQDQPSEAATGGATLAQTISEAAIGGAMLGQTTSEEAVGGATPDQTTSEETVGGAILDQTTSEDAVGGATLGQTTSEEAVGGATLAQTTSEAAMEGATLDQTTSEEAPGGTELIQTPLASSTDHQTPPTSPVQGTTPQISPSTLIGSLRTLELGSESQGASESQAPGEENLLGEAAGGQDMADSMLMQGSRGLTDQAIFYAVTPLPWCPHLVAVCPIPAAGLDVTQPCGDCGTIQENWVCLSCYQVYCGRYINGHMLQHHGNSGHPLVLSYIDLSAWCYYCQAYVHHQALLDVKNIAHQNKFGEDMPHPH

HCT-116 = assay: Cytotoxicity against human HCT-116 cells assessed as inhibition of cell viability incubated for 24 hrs by CCK8 assay; type: functional, cell-based; conditions: HCT-116, 24 h
HCCLM3 = assay: Cytotoxicity against human HCCLM3 cells assessed as inhibition of cell viability incubated for 24 hrs by CCK8 assay; type: functional, cell-based; conditions: HCCLM3, 24 h
SGC-7901 = assay: Cytotoxicity against human SGC-7901 cells assessed as inhibition of cell viability incubated for 24 hrs by CCK8 assay; type: functional, cell-based; conditions: SGC-7901, 24 h
RPMI-8226 [2] = assay: cells; conditions: Homo sapiens, RPMI-8226, 24 h
MDA-MB-468 = assay: cells; conditions: Homo sapiens, MDA-MB-468, 24 h
Histone deacetylase 1 = Histone deacetylase 1 (Homo sapiens, UniProt Q13547); assay: Inhibition of HDAC1 (unknown origin) preincubated for 10 mins followed by substrate addition measured for 1 hr by fluorescence based assay
Histone deacetylase 1, sequence (Q13547 whole entry): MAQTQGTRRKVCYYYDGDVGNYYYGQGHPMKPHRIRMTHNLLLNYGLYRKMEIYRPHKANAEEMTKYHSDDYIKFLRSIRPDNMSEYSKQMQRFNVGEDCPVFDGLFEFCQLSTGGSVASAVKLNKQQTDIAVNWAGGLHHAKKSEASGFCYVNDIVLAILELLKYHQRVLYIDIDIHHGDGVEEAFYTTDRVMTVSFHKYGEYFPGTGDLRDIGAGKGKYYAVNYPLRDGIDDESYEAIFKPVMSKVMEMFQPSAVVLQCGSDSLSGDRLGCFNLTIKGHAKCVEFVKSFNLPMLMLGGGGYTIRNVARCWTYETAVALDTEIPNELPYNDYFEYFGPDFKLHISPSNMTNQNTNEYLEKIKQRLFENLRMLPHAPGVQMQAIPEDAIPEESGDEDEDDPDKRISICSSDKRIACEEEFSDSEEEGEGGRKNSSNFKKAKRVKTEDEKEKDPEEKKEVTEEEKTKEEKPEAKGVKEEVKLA

RPMI-8226 [3] = assay: Induction of cell cycle arrest at G1 phase in human RPMI-8226 cells at 2.5 uM incubated for 24 hrs by PI staining based flow cytometry (reference value: 19.2 %); type: functional
RPMI-8226 [4] = assay: Induction of cell cycle arrest at S phase in human RPMI-8226 cells at 2.5 uM incubated for 24 hrs by PI staining based flow cytometry (reference value: 58.5 %); type: functional
RPMI-8226 [5] = assay: Induction of cell cycle arrest at G2 phase in human RPMI-8226 cells at 2.5 uM incubated for 24 hrs by PI staining based flow cytometry (reference value: 18.3 %); type: functional
RPMI-8226 [6] = assay: Induction of apoptosis in human RPMI-8226 cells assessed as viable cells at 2.5 uM incubated for 24 hrs by Annexin V-FITC/PI staining based flow cytometry (reference value: 90.98 %); type: functional; conditions: read-out: Activity
RPMI-8226 [7] = assay: Induction of apoptosis in human RPMI-8226 cells assessed as early apoptotic cells at 2.5 uM incubated for 24 hrs by Annexin V-FITC/PI staining based flow cytometry (reference value: 5.34 %); type: functional
RPMI-8226 [8] = assay: Induction of apoptosis in human RPMI-8226 cells assessed as late apoptotic cells at 2.5 uM incubated for 24 hrs by Annexin V-FITC/PI staining based flow cytometry (reference value: 2.78 %); type: functional
RPMI-8226 [9] = assay: Induction of apoptosis in human RPMI-8226 cells assessed as necrotic cells at 2.5 uM incubated for 24 hrs by Annexin V-FITC/PI staining based flow cytometry (reference value: 0.90 %); type: functional
[10] = Clearance in mouse at 1 mg/kg, iv; type: ADME, organism-based; conditions: in vivo
[11] = Volume of distribution at steady state in mouse at 1 mg/kg, iv; type: ADME, organism-based; conditions: in vivo, read-out: Vdss
[12] = AUC (0 to t) in mouse at 1 mg/kg, iv; type: ADME, organism-based; conditions: in vivo
[13] = Half life in mouse at 1 mg/kg, iv; type: ADME, organism-based; conditions: in vivo
[14] = Cmax in mouse at 10 mg/kg, po; type: ADME, organism-based; conditions: in vivo
[15] = Tmax in mouse at 10 mg/kg, po; type: ADME, organism-based; conditions: in vivo
[16] = Oral bioavailability in mouse at 10 mg/kg; type: ADME, organism-based; conditions: in vivo
RPMI-8226 [17] = assay: Antitumor activity against human RPMI-8226 cells xenografted in Balb/c nude mouse assessed as ratio of tumor to control at 40 mg/kg, po qd for 21 days administered consecutively relative to control; type: functional; conditions: time 21 day
[18] = Toxicity in Balb/c nude mouse xenografted with human RPMI-8226 cells assessed as body weight loss at 40 mg/kg, po qd for 21 days administered consecutively; type: organism-based; conditions: in vivo, 504 h, time 21 day
[19] = molecular target: T2, Protein deacetylase HDAC6 (Homo sapiens) (UniProt Q9UBN7); assay: Inhibition of HDAC6 (unknown origin) at 1 uM preincubated for 10 mins followed by substrate addition measured for 1 hr by fluorescence based assay relative to control; conditions: time 70.0 min
T2 sequence (whole entry): T1 sequence (Q9UBN7 whole entry)

SMILES	IC50 [1] [µM]	IC50 (HCT-116) [µM]	IC50 (HCCLM3) [µM]	IC50 (SGC-7901) [µM]	IC50 (RPMI-8226 [2]) [µM]	IC50 (MDA-MB-468) [µM]	also measured
CCN(Cc1nc2cc(C(=O)NO)ccc2n1C)c1ccccc1	0.0103	0.5	4.51	4.2	1.38	> 50	–
CC(C)n1c(CNc2ccccc2)nc2cc(C(=O)NO)ccc21	1.51	–	–	–	–	–	–
Cn1c(COc2ccccc2)nc2cc(C(=O)NO)ccc21	0.0126	2.26	8.72	9.81	2.52	7.96	–
Cn1c(CN2CCCCC2)nc2cc(C(=O)NO)ccc21	0.0342	–	–	–	–	–	–
Cn1c(CNc2cccc(F)c2)nc2cc(C(=O)NO)ccc21	0.00678	1.43	5.18	13.6	1.87	3.76	–
CCCCN(Cc1nc2cc(C(=O)NO)ccc2n1C)c1ccccc1	0.00955	3.12	3.49	2.83	0.934	8.17	IC50 (Histone deacetylase 1): 0.634 µM
CCCCN(Cc1nc2cc(C(=O)NO)ccc2n1C)c1cccc(F)c1	0.0128	3.58	4.43	6.53	1.33	10.5	–
CCCN(Cc1nc2cc(C(=O)NO)ccc2n1C)c1ccccc1	0.0128	2.06	4.8	8.69	2.39	> 50	–
Cn1c(CN2CCC3(CC2)OCCO3)nc2cc(C(=O)NO)ccc21	0.0364	–	–	–	–	–	–
Cc1cccc(NCc2nc3cc(C(=O)NO)ccc3n2C)c1	0.0118	16	> 50	27.9	1.62	> 50	–
O=C(CCCCCCNC(=O)c1cnc(N(c2ccccc2)c2ccccc2)nc1)NO [RICOLINOSTAT]	–	–	–	–	–	–	Activity (RPMI-8226 [3]): 28.1%; Activity (RPMI-8226 [4]): 40.8%; Activity (RPMI-8226 [5]): 24.5%; viability at 2.5 µM (RPMI-8226 [6]): 75.3%; Activity (RPMI-8226 [7]): 19.84%; Activity (RPMI-8226 [8]): 4.33%; Activity (RPMI-8226 [9]): 0.56%; clearance [10]: 1.76 L/h/kg; Vd [11]: 0.525 L/kg; AUC(0-t) [12]: 0.566 µg·h/mL; half-life [13]: 22.3 min; Cmax [14]: 0.333 µg/mL; Tmax [15]: 15 min; bioavailability [16]: 6%; T/C (RPMI-8226 [17]): 39.9%; Activity [18]: Non-Toxic
Cn1c(CNc2ccccc2F)nc2cc(C(=O)NO)ccc21	0.0138	> 50	14.5	5.81	2.47	8.58	–
CN(Cc1nc2cc(C(=O)NO)ccc2n1C)c1ccccc1	0.00891	9.95	6.69	3.69	0.661	4.93	IC50 (Histone deacetylase 1): 0.567 µM
C[C@@H](NCc1ccccc1)c1nc2cc(C(=O)NO)ccc2n1C	0.00583	0.508	1.45	1.65	0.709	6.01	IC50 (Histone deacetylase 1): 0.841 µM
Cc1ccccc1NCc1nc2cc(C(=O)NO)ccc2n1C	0.0158	6.3	15	10.8	2.19	5.53	–
Cn1c([C@H](Cc2ccccc2)NCc2ccccc2)nc2cc(C(=O)NO)ccc21	0.00758	5.52	> 50	40.9	2.04	44	–
Cc1ccc(NCc2nc3cc(C(=O)NO)ccc3n2C)cc1	0.0194	–	–	–	–	–	–
Cn1c(CNc2ccccc2)nc2cc(C(=O)NO)ccc21	0.0158	17.2	41.5	> 50	2.06	9.6	–
Cn1c(CNc2ccccc2)nc2ccc(C(=O)NO)cc21	–	–	–	–	–	–	inhibition [19]: 64.1%
O=C(NO)c1ccc2nc(CCc3ccccc3)[nH]c2c1	0.0692	–	–	–	–	–	–
C[C@H](NCc1ccccc1)c1nc2cc(C(=O)NO)ccc2n1C	0.00922	6.42	2.42	2.4	1.05	9.16	–
CCn1c(CNc2ccccc2)nc2cc(C(=O)NO)ccc21	0.853	–	–	–	–	–	–
Cn1c(CSc2ccccc2)nc2cc(C(=O)NO)ccc21	0.0281	–	–	–	–	–	–
O=C(NO)c1ccc2ncn(CCc3ccccc3)c2c1	–	–	–	–	–	–	inhibition [19]: 23.4%
Cn1c(CNc2ccc(F)cc2)nc2cc(C(=O)NO)ccc21	0.0184	–	–	–	–	–	–
O=C(NO)c1ccc2c(c1)nc(CNc1ccccc1)n2C1CC1	0.898	–	–	–	–	–	–
O=C(NO)c1ccc2c(c1)ncn2CCc1ccccc1	–	–	–	–	–	–	inhibition [19]: 70.3%
O=C(NO)c1ccc2nc[nH]c2c1	4.35	–	–	–	–	–	IC50 (Histone deacetylase 1): > 10 µM
Cn1c(CNc2cccc3ccccc23)nc2cc(C(=O)NO)ccc21	0.00587	9.36	0.781	0.518	0.32	6.73	IC50 (Histone deacetylase 1): 0.834 µM
Cn1c(CNCc2ccccc2)nc2cc(C(=O)NO)ccc21	0.0144	1.33	2.62	5.1	0.349	10.8	IC50 (Histone deacetylase 1): 0.976 µM
